Data: patent publication US20180282347A1, “BICYCLIC COMPOUNDS AS PEST CONTROL AGENTS” (BAYER CROPSCIENCE AKTIENGESELLSCHAFT, priority 2014, published 2018)
Read-outs that look alike come from different tables or passages of the source.

Columns and labels:
Myzus persicae = Myzus persicae - spray test; assay type: in vivo; conditions: foliar, 144 h, application rate 500 g/ha, sprayed Chinese cabbage leaf discs (Brassica pekinensis) infested by all stages, after 6 days, read-out: efficacy in % (100% = all aphids killed)
Protocol: Myzus persicae—Spray Test
Solvent: 78 parts by weight of acetone • • 1.5 parts by weight of dimethylformamide
Emulsifier: alkylaryl polyglycol ether
To produce further test concentrations, the formulation is diluted with emulsifier-containing water.
After 6 days, the efficacy in % is determined. 100% means that all the aphids have been killed; 0% means that no aphids have been killed.

[1] = log P by HPLC on reversed-phase (C18) columns, OECD Guideline 117; assay type: physicochemical; conditions: reversed-phase (C18) HPLC column
Protocol: Calibration is carried out using unbranched alkan-2-ones (having 3 to 16 carbon atoms) with known log P values (log P values determined on the basis of the retention times by linear interpolation between two successive alkanones).

[2] = acidic range, pH 2.7, 0.1% aqueous formic acid and acetonitrile as eluents, read-out: logP [a]
[3] = neutral range, pH 7.8, 0.001 molar aqueous ammonium hydrogencarbonate solution and acetonitrile as eluents, read-out: logP [b]

chromatographic logP [1, 2] | chromatographic logP [1, 3] | SMILES | pest or weed control at 500 g/ha (Myzus persicae)
2.99 |  | O=C(Nc1cccc([S+]([O-])C(F)(F)F)c1)c1cc2sc(-c3cccnc3)nc2cn1 (stereo not shown) [Example 14] | 
1.38 | 2.61 | c1cncc(-c2nc3cnc(N4CCCC4)cc3s2)c1 [Example 27, 2-(Pyridin-3-yl)-6-(pyrrolidin-1-yl)[1,3]thiazolo[4,5-c]pyridine] | 
1.17 |  | CS(=O)(=O)CCC(=O)Nc1cc2sc(-c3cccnc3)nc2cn1 [Example 29] | 
1.68 | 2.38 | c1ccc(-c2cc3sc(-c4cccnc4)nc3cn2)nc1 [Example 6, 6-(2-Pyridyl)-2-(3-pyridyl)thiazolo[4,5-c]pyridine] | 
1.23 |  | CS(=O)(=O)CCNC(=O)c1cc2sc(-c3cccnc3)nc2cn1 [Example 30] | 
4.32 | 4.21 | Cc1ccc(-c2cc3sc(-c4cccnc4)nc3cn2)cc1SCC(F)(F)F [Example 25] | 
3.66 | 3.68 | FC(F)(F)c1ccn(-c2cc3sc(-c4cccnc4)nc3cn2)n1 [Example 26, 2-(Pyridin-3-yl)-6-[3-(trifluoromethyl)-1H-pyrazol-1-yl][1,3]thiazolo[4,5-c]pyridine] | 
2.79 | 2.74 | Cc1ccc(-c2cc3sc(-c4cccnc4)nc3cn2)cc1[S+]([O-])CC(F)(F)F (stereo not shown) [Example 5] | 
2.61 |  | O=C(Nc1cc2sc(-c3cccnc3)nc2cn1)c1cccc([S+]([O-])C(F)(F)F)c1 (stereo not shown) [Example 28] | 
1.35 |  | CNC(=O)c1cc2sc(-c3cccnc3)nc2cn1 [Example 20] | 
4.33 |  | O=C(Nc1cccc(SC(F)(F)F)c1)c1cc2sc(-c3cccnc3)nc2cn1 [Example 11] | 
1.89 |  | Clc1cc2sc(-c3cccnc3)nc2cn1 [Example 24, 6-Chloro-2-(3-pyridyl)thiazolo[4,5-c]pyridine] | 
2.09 |  | O=C(Nc1cccc(S(=O)(=O)C(F)(F)F)c1)c1cc2sc(-c3cccnc3)nc2cn1 [Example 19] | 

Continued, compound first:

SMILES | chromatographic logP [1, 2] | chromatographic logP [1, 3] | pest or weed control at 500 g/ha (Myzus persicae)
CN(C(=O)CCS(C)(=O)=O)c1cc2sc(-c3cccnc3)nc2cn1 [Example 17, N-Methyl-3-(methylsulphonyl)-N-[2-(pyridin-3-yl) [1,3]thiazolo[4,5-c]pyridin-6-yl]propanamide] | 1.25 |  | 90%
CN(C(=O)C1CCS(=O)(=O)C1)c1cc2sc(-c3cccnc3)nc2cn1 (stereo not shown) [Example 10] | 1.37 |  | 90%
CN(C(=O)c1cccc(S(=O)(=O)C(F)(F)F)c1)c1cc2sc(-c3cccnc3)nc2cn1 [Example 18] | 1.54 |  | 100%
CN(C(=O)c1cccc(SC(F)(F)F)c1)c1cc2sc(-c3cccnc3)nc2cn1 [Example 7] | 3.3 |  | 90%
Cc1cc(F)c(-c2cc3sc(-c4cccnc4)nc3cn2)cc1[S+]([O-])CC(F)(F)F (stereo not shown) [Example 2, 6-[2-Fluoro-4-methyl-5-(2,2,2-trifluoroethylsulphinyl)phenyl]-2-(3-pyridyl)thiazolo [4,5-c]pyridine] | 2.8 | 2.77 | 
CN(C(=O)c1cccc([S+]([O-])C(F)(F)F)c1)c1cc2sc(-c3cccnc3)nc2cn1 (stereo not shown) [Example 22] | 2.21 |  | 90%
FC(F)(F)c1cc2sc(-c3cccnc3)nc2cn1 [Example 3, 2-(3-Pyridyl)-6-(trifluoromethyl)thiazolo[4,5-c]pyridine] | 2.32 | 2.32 | 
CCN(C)C(=O)c1cc2sc(-c3cccnc3)nc2cn1 [Example 21] | 1.52 |  | 90%
Cc1cc(F)c(-c2cc3sc(-c4cccnc4)nc3cn2)cc1SCC(F)(F)F [Example 1, 6-[2-Fluoro-4-methyl-5-(2,2,2-trifluoroethylsulphanyl)phenyl]-2-(3-pyridyl)thiazolo [4,5-c]pyridine] | 4.45 | 4.41 | 90%
c1cncc(-c2nc3cnc(N4CCOCC4)cc3s2)c1 [Example 4, 4-[2-(3-Pyridyl)thiazolo[4,5-c]pyridin-6-yl]morpholine] | 1.73 | 1.94 | 90%
